# Measurements published in ChEMBL document CHEMBL5252638, “Novel triphenylphosphonium amphiphilic conjugates of glycerolipid type: synthesis, cytotoxic and antibacterial activity, and targeted cancer cell delivery” (RSC Med Chem, 2023).
# Experiments:
# [1] = system: M-HeLa; test: Cytotoxicity against human HelaM cells assessed as number of viable cells measured after 48 hrs by MTT based colorimetric assay; format: functional, cell-based
# [2] = system: MCF7; test: Cytotoxicity against human MCF7 cells assessed as number of viable cells measured after 48 hrs by MTT based colorimetric assay; format: functional, cell-based; settings: MCF7, 48 h
# [3] = system: HuTu80; test: Cytotoxicity against human HuTu80 cells assessed as number of viable cells measured after 48 hrs by MTT based colorimetric assay; format: functional, cell-based; settings: HuTu80, 48 h
# [4] = system: PANC-1; test: Cytotoxicity against human PANC-1 cells assessed as number of viable cells measured after 48 hrs by MTT based colorimetric assay; format: functional, cell-based; settings: PANC-1, 48 h
# [5] = system: A549; test: Cytotoxicity against human A549 cells assessed as number of viable cells measured after 48 hrs by MTT based colorimetric assay; format: functional, cell-based; settings: A549, 48 h
# [6] = system: PC-3; test: Cytotoxicity against human PC-3 cells assessed as number of viable cells measured after 48 hrs by MTT based colorimetric assay; format: functional, cell-based; settings: PC-3, 48 h
# [7] = system: T98G; test: Cytotoxicity against human T98G cells assessed as number of viable cells measured after 48 hrs by MTT based colorimetric assay; format: functional, cell-based
# [8] = system: HepG2; test: Cytotoxicity against human HepG2 cells assessed as number of viable cells measured after 48 hrs by MTT based colorimetric assay; format: functional, cell-based; settings: HepG2, 48 h
# [9] = system: SK-OV-3; test: Cytotoxicity against human SK-OV-3 cells assessed as number of viable cells measured after 48 hrs by MTT based colorimetric assay; format: functional, cell-based; settings: SK-OV-3, 48 h
# [10] = system: DU-145; test: Cytotoxicity against human DU-145 cells assessed as number of viable cells measured after 48 hrs by MTT based colorimetric assay; format: functional, cell-based; settings: DU-145, 48 h
# [11] = Cytotoxicity against human WI-38 cells assessed as number of viable cells measured after 48 hrs by MTT based colorimetric assay; format: toxicity, cell-based
# [12] = Cytotoxicity against human Chang liver cells assessed as number of viable cells measured after 48 hrs by MTT based colorimetric assay; format: toxicity, cell-based
# [13] = species on record: Homo sapiens; test: Selectivity index, ratio of IC50 for human Chang liver cells to IC50 for human MCF7 cells
# [14] = species on record: Homo sapiens; test: Selectivity index, ratio of IC50 for human Chang liver cells to IC50 for human HuTu80 cells
# [15] = species on record: Homo sapiens; test: Selectivity index, ratio of IC50 for human Chang liver cells to IC50 for human PC-3 cells
# [16] = species on record: Homo sapiens; test: Selectivity index, ratio of IC50 for human Chang liver cells to IC50 for human SK-OV-3 cells
# [17] = species on record: Homo sapiens; test: Selectivity index, ratio of IC50 for human Chang liver cells to IC50 for human DU-145 cells
# [18] = system: Staphylococcus aureus; test: Antimicrobial activity against Staphylococcus aureus ATCC 6538 P FDA 209P by serial microdilution method; format: functional
# [19] = system: Bacillus cereus; test: Antimicrobial activity against Bacillus cereus ATCC 10702 NCTC 8035 by serial microdilution method; format: functional
# [20] = system: Enterococcus faecalis; test: Antimicrobial activity against Enterococcus faecalis ATCC 29212 by serial microdilution method; format: functional
# [21] = system: Escherichia coli; test: Antimicrobial activity against Escherichia coli ATCC 25922 by serial microdilution method; format: functional
# [22] = system: Staphylococcus aureus; test: Bactericidal against Staphylococcus aureus ATCC 6538 P FDA 209P by serial microdilution method; format: functional
# [23] = system: Bacillus cereus; test: Bactericidal activity against Bacillus cereus ATCC 10702 NCTC 8035 by serial microdilution method; format: functional
# [24] = system: Enterococcus faecalis; test: Bactericidal activity against Enterococcus faecalis ATCC 29212 by serial microdilution method; format: functional
# [25] = system: Escherichia coli; test: Bactericidal activity against Escherichia coli ATCC 25922 by serial microdilution method; format: functional
# [26] = species on record: Homo sapiens; test: Selectivity index, ratio of IC50 for human WI-38 cells to IC50 for human HuTu80 cells
# [27] = system: HuTu80; test: Induction of apoptosis in human HuTu80 cells assessed as viable cells at 5 uM incubated for 48 hrs by annexin V FITC/propidium iodide staining based flow cytometry analysis (reference value: 93.71%); format: functional; settings: read-out: Activity
# [28] = system: HuTu80; test: Induction of apoptosis in human HuTu80 cells assessed as viable cells at 10 uM incubated for 48 hrs by annexin V FITC/propidium iodide staining based flow cytometry analysis (reference value: 93.71%); format: functional; settings: read-out: Activity
# [29] = system: HuTu80; test: Induction of apoptosis in human HuTu80 cells assessed as early apoptotic cells at 5 uM incubated for 48 hrs by annexin V FITC/propidium iodide staining based flow cytometry analysis (reference value: 1.74%); format: functional
# [30] = system: HuTu80; test: Induction of apoptosis in human HuTu80 cells assessed as early apoptotic cells at 10 uM incubated for 48 hrs by annexin V FITC/propidium iodide staining based flow cytometry analysis (reference value: 1.74%); format: functional
# [31] = system: HuTu80; test: Induction of apoptosis in human HuTu80 cells assessed as late apoptotic cells at 5 uM incubated for 48 hrs by annexin V FITC/propidium iodide staining based flow cytometry analysis (reference value: 0.00%); format: functional
# [32] = system: HuTu80; test: Induction of apoptosis in human HuTu80 cells assessed as late apoptotic cells at 10 uM incubated for 48 hrs by annexin V FITC/propidium iodide staining based flow cytometry analysis (reference value: 0.00%); format: functional
# [33] = system: HuTu80; test: Induction of apoptosis in human HuTu80 cells assessed as necrotic cells at 5 uM incubated for 48 hrs by annexin V FITC/propidium iodide staining based flow cytometry analysis (reference value: 4.56%); format: functional
# [34] = system: HuTu80; test: Induction of apoptosis in human HuTu80 cells assessed as necrotic cells at 10 uM incubated for 48 hrs by annexin V FITC/propidium iodide staining based flow cytometry analysis (reference value: 4.56%); format: functional
# [35] = system: HuTu80; test: Induction of cell cycle arrest in human HuTu80 cells assessed as accumulation of cell at G1/G0 phase at 5 uM measured after 48 hrs by propidium iodide staining based analysis (reference value: 72%); format: functional
# [36] = system: HuTu80; test: Induction of cell cycle arrest in human HuTu80 cells assessed as accumulation of cell at G1/G0 phase at 10 uM measured after 48 hrs by propidium iodide staining based analysis (reference value: 72%); format: functional
# [37] = system: HuTu80; test: Induction of cell cycle arrest in human HuTu80 cells assessed as accumulation of cell at G2/M phase at 5 uM measured after 48 hrs by propidium iodide staining based analysis (reference value: 18.7%); format: functional
# [38] = system: HuTu80; test: Induction of cell cycle arrest in human HuTu80 cells assessed as accumulation of cell at G2/M phase at 10 uM measured after 48 hrs by propidium iodide staining based analysis (reference value: 18.7%); format: functional
# [39] = system: HuTu80; test: Induction of cell cycle arrest in human HuTu80 cells assessed as accumulation of cell at S phase at 5 uM measured after 48 hrs by propidium iodide staining based analysis (reference value: 8.1%); format: functional
# [40] = system: HuTu80; test: Induction of cell cycle arrest in human HuTu80 cells assessed as accumulation of cell at S phase at 10 uM measured after 48 hrs by propidium iodide staining based analysis (reference value: 8.1%); format: functional
# [41] = system: HuTu80; test: Induction of ROS production in human HuTu80 cells assessed as increase in fluorescence intensity at 5 uM measured after 48 hrs by flow cytometry based analysis (reference value: 380); format: functional
# [42] = system: HuTu80; test: Induction of ROS production in human HuTu80 cells assessed as increase in fluorescence intensity at 10 uM measured after 48 hrs by flow cytometry based analysis (reference value: 380); format: functional
# [43] = system: HuTu80; test: Induction of mitochondrial membrane potential loss in human HuTu80 cells assessed as J-monomer green fluorescence intensity at 5 uM incubated for 24 hrs by JC10 staining based flow cytometry method (reference value: 5.7%); format: functional
# [44] = system: HuTu80; test: Induction of mitochondrial membrane potential loss in human HuTu80 cells assessed as J-monomer green fluorescence intensity at 10 uM incubated for 24 hrs by JC10 staining based flow cytometry method (reference value: 5.7%); format: functional
# [45] = system: HuTu80; test: Induction of mitochondrial membrane potential loss in human HuTu80 cells assessed as J-aggregates red fluorescence intensity at 5 uM incubated for 24 hrs by JC10 staining based flow cytometry method (reference value: 94.4%); format: functional
# [46] = system: HuTu80; test: Induction of mitochondrial membrane potential loss in human HuTu80 cells assessed as J-aggregates red fluorescence intensity at 10 uM incubated for 24 hrs by JC10 staining based flow cytometry method (reference value: 94.4%); format: functional
structure (smiles),measurement,setting,value
CCCCC/C=C\C/C=C\CCCCCCCC(=O)OCC(COC(=O)CCCC[P+](c1ccccc1)(c1ccccc1)c1ccccc1)OC(=O)CCCC[P+](c1ccccc1)(c1ccccc1)c1ccccc1 (stereo unspecified),IC50,[1],53.8 µM
same,IC50,[2],24.7 µM
same,IC50,[3],9 µM
same,IC50,[4],46.7 µM
same,IC50,[5],70 µM
same,IC50,[6],40.3 µM
same,IC50,[7],51.7 µM
same,IC50,[8],64.5 µM
same,IC50,[9],39.4 µM
same,IC50,[10],29.4 µM
same,IC50 at 48 h,[11],41.1 µM
same,IC50 at 48 h,[12],45 µM
same,Ratio IC50,[13],1.8
same,Ratio IC50,[14],5
same,Ratio IC50,[15],1.1
same,Ratio IC50,[16],1.1
same,Ratio IC50,[17],1.5
same,MIC,[18],3.2 µM
same,MIC,[19],6.4 µM
same,MIC,[20],12.8 µM
same,MIC,[21],6.4 µM
same,MBC,[22],3.2 µM
same,MBC,[23],500 µM
same,MBC,[24],51.2 µM
same,MBC,[25],12.8 µM
CCCCCCCC/C=C\CCCCCCCC(=O)OCC(O)COC(=O)CCCC[P+](c1ccccc1)(c1ccccc1)c1ccccc1.[Br-] (stereo unspecified),IC50,[1],60.2 µM
same,IC50,[2],52.1 µM
same,IC50,[3],10 µM
same,IC50,[4],62.5 µM
same,IC50,[5],71.3 µM
same,IC50,[6],51 µM
same,IC50,[7],62.5 µM
same,IC50,[8],100 µM
same,IC50,[9],52 µM
same,IC50,[10],41 µM
same,IC50 at 48 h,[11],53.1 µM
same,IC50 at 48 h,[12],34 µM
same,Ratio IC50,[26],5.1
same,viability at 5 µM,[27],63.7%
same,viability at 10 µM,[28],37.6%
same,Activity,[29],3.35%
same,Activity,[30],4.78%
same,Activity,[31],15.18%
same,Activity,[32],33.13%
same,Activity,[33],17.73%
same,Activity,[34],24.48%
same,Activity,[35],84%
same,Activity,[36],87%
same,Activity,[37],3%
same,Activity,[38],1.1%
same,Activity,[39],2.1%
same,Activity,[40],1.2%
same,Flu intensity,[41],700
same,Flu intensity,[42],1500
same,Activity,[43],49%
same,Activity,[44],67.5%
same,Activity,[45],51.1%
same,Activity,[46],30.1%
same,MIC,[18],31.3 µM
same,MIC,[19],7.8 µM
same,MIC,[20],7.8 µM
same,MIC,[21],125 µM
same,MBC,[22],500 µM
same,MBC,[23],500 µM
same,MBC,[24],125 µM
same,MBC,[25],125 µM
